ChEMBL document CHEMBL3046568, “Synthesis, antimicrobial and DNA cleavage studies of some 4-aryloxymethylcoumarins obtained by reaction of 4-bromomethylcoumarins with bidentate nucleophiles” (2012)
≈ marks a conversion by molar mass, not a printed value. Calls of active or inactive are those of the source. No cut-off for these calls is given here.

Experiments:
Pseudomonas aeruginosa = test: Antibacterial activity against Pseudomonas aeruginosa MTCC 1034 after 24 hr by disk diffusion method; format: functional; conditions: for MIC: Pseudomonas aeruginosa, MTCC 1034, 24 h
Candida albicans = test: Antifungal activity against Candida albicans after 3 to 4 days by serial dilution method; format: functional; conditions: for MIC: Candida albicans
Staphylococcus aureus [1] = test: Antibacterial activity against Staphylococcus aureus MTCC 3160 after 24 hr by disk diffusion method; format: functional; conditions: for MIC: Staphylococcus aureus, MTCC 3160, 24 h
Aspergillus niger [2] = test: Antifungal activity against Aspergillus niger after 3 to 4 days by serial dilution method; format: functional; conditions: for MIC: Aspergillus niger
Staphylococcus aureus [3] = test: Induction of Staphylococcus aureus MTCC 3160 DNA cleavage at 50 ug after 2 hr by agarose gel electrophoresis
Aspergillus niger [4] = test: Induction of Aspergillus niger DNA cleavage at 50 ug after 2 hr by agarose gel electrophoresis
Aspergillus fumigatus = test: Antifungal activity against Aspergillus fumigatus after 3 to 4 days by serial dilution method; format: functional; conditions: for MIC: Aspergillus fumigatus
Mucor fuscus = test: Antifungal activity against Mucor fuscus after 3 to 4 days by serial dilution method; format: functional; conditions: for MIC: Mucor fuscus
Enterococcus faecalis = test: Antibacterial activity against Enterococcus faecalis MTCC 3382 after 24 hr by disk diffusion method; format: functional; conditions: for MIC: Enterococcus faecalis, MTCC 3382, 24 h
Bacillus subtilis = test: Antibacterial activity against Bacillus subtilis MTCC 297 after 24 hr by disk diffusion method; format: functional; conditions: for MIC: Bacillus subtilis, MTCC 297, 24 h
Escherichia coli [5] = test: Antibacterial activity against Escherichia coli MTCC 1089 after 24 hr by disk diffusion method; format: functional; conditions: for MIC: Escherichia coli, MTCC 1089, 24 h
Klebsiella pneumoniae = test: Antibacterial activity against Klebsiella pneumoniae MTCC 3384 after 24 hr by disk diffusion method; format: functional; conditions: for MIC: Klebsiella pneumoniae, MTCC 3384, 24 h
Escherichia coli [6] = test: Induction of Escherichia coli MTCC 1089 DNA cleavage at 50 ug after 2 hr by agarose gel electrophoresis
Fusarium oxysporum = test: Antifungal activity against Fusarium oxysporum after 3 to 4 days by serial dilution method; format: functional; conditions: for MIC: Fusarium oxysporum
Penicillium chrysogenum = test: Antifungal activity against Penicillium chrysogenum after 3 to 4 days by serial dilution method; format: functional; conditions: for MIC: Penicillium chrysogenum
Aspergillus niger [7] = test: Induction of Aspergillus niger DNA cleavage at 25 ug after 2 hr by agarose gel electrophoresis

Row | MIC (Pseudomonas aeruginosa) [µg/mL] | MIC (Candida albicans) [µg/mL] | MIC (Staphylococcus aureus [1]) [µg/mL] | MIC (Aspergillus niger [2]) [µg/mL] | Activity (Staphylococcus aureus [3]) | Activity (Aspergillus niger [4]) | MIC (Aspergillus fumigatus) [µg/mL] | MIC (Mucor fuscus) [µg/mL] | MIC (Enterococcus faecalis) [µg/mL] | MIC (Bacillus subtilis) [µg/mL] | MIC (Escherichia coli [5]) [µg/mL] | SMILES | inhibition zone (IZ) (Pseudomonas aeruginosa) [mm] | inhibition zone (IZ) (Candida albicans) [mm] | inhibition zone (IZ) (Staphylococcus aureus [1]) [mm] | inhibition zone (IZ) (Aspergillus niger [2]) [mm] | inhibition zone (IZ) (Aspergillus fumigatus) [mm] | inhibition zone (IZ) (Mucor fuscus) [mm] | inhibition zone (IZ) (Enterococcus faecalis) [mm] | inhibition zone (IZ) (Bacillus subtilis) [mm] | inhibition zone (IZ) (Escherichia coli [5]) [mm] | further results
1 | 6.25 (≈ 18.2 µM) | 6.25 (≈ 18.2 µM) | 6.25 (≈ 18.2 µM) | 6.25 (≈ 18.2 µM) | Active | Active | 6.25 (≈ 18.2 µM) | 6.25 (≈ 18.2 µM) | 6.25 (≈ 18.2 µM) | 6.25 (≈ 18.2 µM) | 12.5 (≈ 36.4 µM) | CC(=O)Nc1cccc(OCc2cc(=O)oc3ccc(Cl)cc23)c1 | 23 | 20 | 21 | 22 | 22 | 22 | 23 | 20 | 16 | inhibition zone (IZ) (Klebsiella pneumoniae): 19 mm; MIC (Klebsiella pneumoniae): 6.25 µg/mL (≈ 18.2 µM); Activity (Escherichia coli [6]): Active; inhibition zone (IZ) (Fusarium oxysporum): 16 mm; MIC (Fusarium oxysporum): 12.5 µg/mL (≈ 36.4 µM); inhibition zone (IZ) (Penicillium chrysogenum): 23 mm; MIC (Penicillium chrysogenum): 6.25 µg/mL (≈ 18.2 µM); Activity (Aspergillus niger [7]): Active
2 | 12.5 (≈ 37 µM) | 25 (≈ 74.1 µM) | 12.5 (≈ 37 µM) | 12.5 (≈ 37 µM) | inactive | inactive | 12.5 (≈ 37 µM) | 12.5 (≈ 37 µM) | 6.25 (≈ 18.5 µM) | 12.5 (≈ 37 µM) | 50 (≈ 148 µM) | CCN(CC)c1cccc(OCc2cc(=O)oc3cc(C)ccc23)c1 | 16 | 8 | 16 | 18 | 15 | 16 | 15 | 13 | 9 | inhibition zone (IZ) (Klebsiella pneumoniae): 14 mm; MIC (Klebsiella pneumoniae): 12.5 µg/mL (≈ 37 µM); Activity (Escherichia coli [6]): inactive; inhibition zone (IZ) (Fusarium oxysporum): 7 mm; MIC (Fusarium oxysporum): 50 µg/mL (≈ 148 µM); inhibition zone (IZ) (Penicillium chrysogenum): 18 mm; MIC (Penicillium chrysogenum): 12.5 µg/mL (≈ 37 µM)
3 | 6.25 (≈ 19.6 µM) | 12.5 (≈ 39.3 µM) | 25 (≈ 78.5 µM) | 12.5 (≈ 39.3 µM) | inactive | inactive | 12.5 (≈ 39.3 µM) | 25 (≈ 78.5 µM) | 25 (≈ 78.5 µM) | 25 (≈ 78.5 µM) | 25 (≈ 78.5 µM) | O=c1cc(COc2cccc(O)c2)c2ccc3ccccc3c2o1 | 19 | 13 | 10 | 17 | 15 | 13 | 13 | 12 | 13 | inhibition zone (IZ) (Klebsiella pneumoniae): 14 mm; MIC (Klebsiella pneumoniae): 12.5 µg/mL (≈ 39.3 µM); Activity (Escherichia coli [6]): inactive; inhibition zone (IZ) (Fusarium oxysporum): 12 mm; MIC (Fusarium oxysporum): 25 µg/mL (≈ 78.5 µM); inhibition zone (IZ) (Penicillium chrysogenum): 16 mm; MIC (Penicillium chrysogenum): 25 µg/mL (≈ 78.5 µM)
4 | 6.25 (≈ 16.1 µM) | 12.5 (≈ 32.2 µM) | 6.25 (≈ 16.1 µM) | 6.25 (≈ 16.1 µM) | Active | Active | 6.25 (≈ 16.1 µM) | 6.25 (≈ 16.1 µM) | 6.25 (≈ 16.1 µM) | 6.25 (≈ 16.1 µM) | 12.5 (≈ 32.2 µM) | CC(=O)Nc1cccc(OCc2cc(=O)oc3ccc(Br)cc23)c1 | 22 | 16 | 17 | 20 | 20 | 19 | 18 | 17 | 14 | inhibition zone (IZ) (Klebsiella pneumoniae): 18 mm; MIC (Klebsiella pneumoniae): 6.25 µg/mL (≈ 16.1 µM); Activity (Escherichia coli [6]): Active; inhibition zone (IZ) (Fusarium oxysporum): 13 mm; MIC (Fusarium oxysporum): 25 µg/mL (≈ 64.4 µM); inhibition zone (IZ) (Penicillium chrysogenum): 20 mm; MIC (Penicillium chrysogenum): 6.25 µg/mL (≈ 16.1 µM)
